Values of other authors as cited in US9119805B2, “Therapy and prevention of problem drinking” (THE UNIVERSITY OF SYDNEY, priority 2009, dated 2015).
Starred links: 1 amine or outer side, 2 acyl side, 3 side chain; linkers in the order of their positions; H or OH if unused. Positions of bridges follow the written chain, without caps; N, C: chain ends. Residues, ends and D or L forms follow the SMILES beside them. X1 = O=C(CCC[*:2])[*:1]

Key:
dependent drinkers = settings: cited from earlier work
vasopressin receptor = settings: cited from earlier work
[1] = compared with exogenously applied oxytocin; cited from earlier work
[2] = animal tests; cited from earlier work
oxytocin receptor = oxytocin receptor (Homo sapiens, UniProt P30559); settings: compared to native oxytocin; cited from earlier work
oxytocin receptor, sequence (P30559 whole entry): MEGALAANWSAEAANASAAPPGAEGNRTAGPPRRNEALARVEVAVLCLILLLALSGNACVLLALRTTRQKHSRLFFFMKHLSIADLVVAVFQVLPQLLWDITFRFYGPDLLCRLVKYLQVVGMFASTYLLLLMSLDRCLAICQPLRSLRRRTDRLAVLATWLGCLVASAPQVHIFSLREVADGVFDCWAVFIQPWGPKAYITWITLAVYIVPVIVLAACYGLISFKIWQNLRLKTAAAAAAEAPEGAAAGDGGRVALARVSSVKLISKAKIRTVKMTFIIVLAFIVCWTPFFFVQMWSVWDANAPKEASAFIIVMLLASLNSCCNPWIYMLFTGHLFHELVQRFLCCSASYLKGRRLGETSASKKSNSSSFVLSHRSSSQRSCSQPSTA

Q: Which “proportion of subjects with 28 consecutive days of abstinence or non-hazardous/harmful drinking” value (dependent drinkers; short-term abstinence) does the source give for `CC1(C)O[C@@H]2[C@@H](CO[C@@]3(COS(N)(=O)=O)OC(C)(C)O[C@@H]23)O1` [Topiramate] here?
A: increased the proportion

Q: Which “affinity for the vasopressin receptor” value (vasopressin receptor) does the source give for `Cc1cc(C(=O)N2Cc3cnn(C)c3Nc3ccccc32)ccc1CNC(=O)N1CCN(Cc2cc(O)cc(O)c2)CC1` [WAY-267,464] here?
A: negligible affinity

Q: What about the “extent of crossing the blood-brain-barrier” value [1] of the same molecule?
A: significantly greater extent than exogenously applied oxytocin

Q: And the anti-depressant effect [2]?
A: no apparent anti-depressant effect

Q: And the centrally-mediated oxytocinergic actions [2]?
A: anxiolytic effects

Q: For `CC(=O)NCCCS(=O)(=O)O` [acamprosate], which patients continuously abstinent (dependent drinkers; after 6 months, placebo 23%) is on record?
A: about 36%

Q: With `CC[C@H](C)[C@@H]1NC(=O)[C@H](Cc2ccc(OC)cc2)NC(=O)CCCSC[C@@H](C(=O)N2CCC[C@H]2C(=O)N[C@@H](CC(C)C)C(=O)NCC(N)=O)NC(=O)[C@H](CC(N)=O)NC(=O)[C@H](CCC(N)=O)NC1=O` [carbetocin, 1-deamino-1-monocarba-[2-O-methyltyrosine]-oxytocin] (Y(Me)IQNCPLG-NH2; linker N-5 via X1) as the molecule, how does the duration of activity (oxytocin receptor) read?
A: long-lasting activity

Q: For `O=C1CC[C@@]2(O)[C@H]3Cc4ccc(O)c5c4[C@@]2(CCN3CC2CC2)[C@H]1O5` [naltrexone], which reduction of relapse (dependent drinkers; oral, during the first 3 months) is on record?
A: about 36%
